Target: T1, murine SR-BI (Mus musculus, UniProt Q61009)
T1 construct: expressed in transfected cells; host or cells: ldlA-7 (LDL receptor deficient Chinese hamster ovary cells)
T1 sequence (Q61009 1-509): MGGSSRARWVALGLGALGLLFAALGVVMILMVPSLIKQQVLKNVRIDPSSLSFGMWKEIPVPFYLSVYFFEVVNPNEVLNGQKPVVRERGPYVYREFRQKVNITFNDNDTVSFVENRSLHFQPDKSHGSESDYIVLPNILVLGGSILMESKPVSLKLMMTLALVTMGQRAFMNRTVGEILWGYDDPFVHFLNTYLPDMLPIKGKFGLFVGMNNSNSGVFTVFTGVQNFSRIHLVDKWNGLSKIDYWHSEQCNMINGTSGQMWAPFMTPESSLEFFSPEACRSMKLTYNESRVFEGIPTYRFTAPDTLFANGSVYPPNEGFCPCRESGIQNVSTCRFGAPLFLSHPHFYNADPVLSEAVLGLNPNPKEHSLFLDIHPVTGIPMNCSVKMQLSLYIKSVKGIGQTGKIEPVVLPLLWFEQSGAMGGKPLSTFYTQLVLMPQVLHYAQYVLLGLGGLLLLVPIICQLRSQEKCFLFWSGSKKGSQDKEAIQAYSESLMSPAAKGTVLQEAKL
Experiment: Uptake of DiI from DiI-HDL by ldlA[mSR-BI] cells (high throughput screen and concentration dependence)
Type: cell-based
Settings: Test 1

Question: Cc1c([N+](=O)[O-])cc(C(=O)Nc2cccc(NC(=O)c3ccccc3)c2)cc1[N+](=O)[O-] [MIT 9952-235] was tested. Which “ENDOHDL Test 1” value did it give?
Answer: Its value is 0.62.

Question: How did the “ENDOHDL Test 1” value turn out when Cc1cccc(C(=O)Nc2cccc(-c3nc4c(C)cccc4o3)c2)c1 [MIT 9952-236] was run?
Answer: Its value is 0.57.

Question: COc1cc2ccccc2cc1C(=O)Nc1cccc(C)c1 [MIT 9952-237] was tested. Which “ENDOHDL Test 1” value did it give?
Answer: Its value is 0.53.

Question: For COc1ccc([N+](=O)[O-])cc1NC(=O)c1ccccc1 [MIT 9952-238], which “ENDOHDL Test 1” value is on record?
Answer: The value was 0.61.

Question: How did the “ENDOHDL Test 1” value turn out when COc1cccc(/C=N/Nc2ccc([N+](=O)[O-])cc2)c1 [MIT 9952-240] was run?
Answer: The value was 0.64.

Question: For O=S(=O)([O-])C(F)(F)F.O=[N+]([O-])c1ccc([I+]c2ccc(F)cc2)cc1 [MIT 9952-241], which “ENDOHDL Test 1” value is on record?
Answer: The value was 0.48.

Question: With C/C(=N\NC(=O)c1ccccc1)c1ccccc1C(=O)O [MIT 9952-242] as the molecule, how does the “ENDOHDL Test 1” value read?
Answer: The value was 1.26.

Question: How did the “ENDOHDL Test 1” value turn out when Brc1ccc2c(c1)OCCSCCOCCOCCSCCO2 [MIT 9952-244] was run?
Answer: Its value is 0.56.

Question: Which “ENDOHDL Test 1” value does the source give for C/C(=N\Nc1ccc([N+](=O)[O-])cc1)c1ccc([N+](=O)[O-])cc1 [MIT 9952-245] here?
Answer: The value was 0.54.

Question: For Cc1ccc2c(c1)/C(=C/c1ccc([N+](=O)[O-])cc1)c1cccnc1-2 [MIT 9952-246], which “ENDOHDL Test 1” value is on record?
Answer: The value was 0.56.

Question: For CCCCCOc1ccc(-c2ccc(C(=O)NC(NCc3ccccc3)C(Cl)(Cl)Cl)cc2)cc1 (stereo not shown) [MIT 9952-247], which “ENDOHDL Test 1” value is on record?
Answer: Its value is 0.63.

Question: CCc1nnc(N2CCN(c3ncnc4c3cnn4-c3ccccc3)CC2)s1 [MIT 9952-248] was tested. Which “ENDOHDL Test 1” value did it give?
Answer: Its value is 0.68.

Question: CCCCOCCC1CCC/C1=N\NC(N)=S (stereo not shown) [MIT 9952-249] was tested. Which “ENDOHDL Test 1” value did it give?
Answer: Its value is 0.7.

Question: With CCN(CC(O)COc1ccccc1C(C)=O)S(=O)(=O)[O-].[Na+] (stereo not shown) [MIT 9952-250] as the molecule, how does the “ENDOHDL Test 1” value read?
Answer: Its value is 1.28.

Question: How did the “ENDOHDL Test 1” value turn out when C=CCN(CC=C)C(=O)Nc1ccccc1 [MIT 9952-251] was run?
Answer: The value was 0.52.

Question: CN(N)c1nc(-c2ccccc2)cc(-c2ccccc2)n1 [MIT 9952-252] was tested. Which “ENDOHDL Test 1” value did it give?
Answer: The value was 0.58.

Question: Which “ENDOHDL Test 1” value does the source give for COc1ccc(C(=O)Nc2ccc(I)cc2)cc1OC [MIT 9952-253] here?
Answer: The value was 0.59.

Question: Which “ENDOHDL Test 1” value does the source give for C/C(=N\NC(=O)COc1ccc(I)cc1)c1cccs1 [MIT 9952-254] here?
Answer: Its value is 0.69.

Question: With CCOc1ccc(NC(=O)/C=C/c2cccc([N+](=O)[O-])c2)cc1 [MIT 9952-255] as the molecule, how does the “ENDOHDL Test 1” value read?
Answer: Its value is 0.61.

Question: Which “ENDOHDL Test 1” value does the source give for O=C(Nc1cccc(Cl)c1)N1CCN(c2ccc([N+](=O)[O-])cc2)CC1 [MIT 9952-256] here?
Answer: The value was 0.65.

Question: CCn1c(C)c(-c2ccccc2)c2cc([N+](=O)[O-])ccc21 [MIT 9952-257] was tested. Which “ENDOHDL Test 1” value did it give?
Answer: The value was 0.66.

Question: How did the “ENDOHDL Test 1” value turn out when Cl.c1ccc(CCNC2CCCc3c2[nH]c2ccc(C4CCCCC4)cc32)cc1 (stereo not shown) [MIT 9952-258] was run?
Answer: Its value is 0.51.

Question: How did the “ENDOHDL Test 1” value turn out when COc1ccc(C(=O)Nc2cccc(C(F)(F)F)c2)cc1OC [MIT 9952-259] was run?
Answer: Its value is 0.59.

Question: For CC[n+]1c(/C=C/SC)ccc2ccccc21 [MIT 9952-260], which “ENDOHDL Test 1” value is on record?
Answer: Its value is 0.56.

Question: Which “ENDOHDL Test 1” value does the source give for Brc1ccc(-c2cc(-c3ccccc3)nc(N3CCOCC3)n2)cc1 [MIT 9952-261] here?
Answer: The value was 0.62.

Question: For c1ccc(-c2cc3c(ccc4nonc43)[nH]2)cc1 [MIT 9952-262], which “ENDOHDL Test 1” value is on record?
Answer: The value was 0.53.

Same assay, conditions: Test 2

Question: With Cc1c([N+](=O)[O-])cc(C(=O)Nc2cccc(NC(=O)c3ccccc3)c2)cc1[N+](=O)[O-] [MIT 9952-235] as the molecule, how does the “ENDOHDL Test 2” value read?
Answer: The value was 0.33.

Question: How did the “ENDOHDL Test 2” value turn out when Cc1cccc(C(=O)Nc2cccc(-c3nc4c(C)cccc4o3)c2)c1 [MIT 9952-236] was run?
Answer: The value was 0.38.

Question: With COc1cc2ccccc2cc1C(=O)Nc1cccc(C)c1 [MIT 9952-237] as the molecule, how does the “ENDOHDL Test 2” value read?
Answer: Its value is 0.39.

Question: For COc1ccc([N+](=O)[O-])cc1NC(=O)c1ccccc1 [MIT 9952-238], which “ENDOHDL Test 2” value is on record?
Answer: The value was 0.6.

Question: COc1cccc(/C=N/Nc2ccc([N+](=O)[O-])cc2)c1 [MIT 9952-240] was tested. Which “ENDOHDL Test 2” value did it give?
Answer: The value was 0.71.

Question: Which “ENDOHDL Test 2” value does the source give for O=S(=O)([O-])C(F)(F)F.O=[N+]([O-])c1ccc([I+]c2ccc(F)cc2)cc1 [MIT 9952-241] here?
Answer: Its value is 0.52.

Question: C/C(=N\NC(=O)c1ccccc1)c1ccccc1C(=O)O [MIT 9952-242] was tested. Which “ENDOHDL Test 2” value did it give?
Answer: Its value is 1.26.

Question: Which “ENDOHDL Test 2” value does the source give for Brc1ccc2c(c1)OCCSCCOCCOCCSCCO2 [MIT 9952-244] here?
Answer: The value was 0.54.

Question: C/C(=N\Nc1ccc([N+](=O)[O-])cc1)c1ccc([N+](=O)[O-])cc1 [MIT 9952-245] was tested. Which “ENDOHDL Test 2” value did it give?
Answer: The value was 0.64.

Question: With Cc1ccc2c(c1)/C(=C/c1ccc([N+](=O)[O-])cc1)c1cccnc1-2 [MIT 9952-246] as the molecule, how does the “ENDOHDL Test 2” value read?
Answer: The value was 0.52.

Question: How did the “ENDOHDL Test 2” value turn out when CCCCCOc1ccc(-c2ccc(C(=O)NC(NCc3ccccc3)C(Cl)(Cl)Cl)cc2)cc1 (stereo not shown) [MIT 9952-247] was run?
Answer: The value was 0.64.

Question: With CCc1nnc(N2CCN(c3ncnc4c3cnn4-c3ccccc3)CC2)s1 [MIT 9952-248] as the molecule, how does the “ENDOHDL Test 2” value read?
Answer: Its value is 0.66.

Question: For CCCCOCCC1CCC/C1=N\NC(N)=S (stereo not shown) [MIT 9952-249], which “ENDOHDL Test 2” value is on record?
Answer: The value was 0.57.

Question: For CCN(CC(O)COc1ccccc1C(C)=O)S(=O)(=O)[O-].[Na+] (stereo not shown) [MIT 9952-250], which “ENDOHDL Test 2” value is on record?
Answer: The value was 1.24.

Question: With C=CCN(CC=C)C(=O)Nc1ccccc1 [MIT 9952-251] as the molecule, how does the “ENDOHDL Test 2” value read?
Answer: The value was 0.57.

Question: For CN(N)c1nc(-c2ccccc2)cc(-c2ccccc2)n1 [MIT 9952-252], which “ENDOHDL Test 2” value is on record?
Answer: The value was 0.39.

Question: Which “ENDOHDL Test 2” value does the source give for COc1ccc(C(=O)Nc2ccc(I)cc2)cc1OC [MIT 9952-253] here?
Answer: Its value is 0.65.

Question: With C/C(=N\NC(=O)COc1ccc(I)cc1)c1cccs1 [MIT 9952-254] as the molecule, how does the “ENDOHDL Test 2” value read?
Answer: Its value is 1.01.

Question: Which “ENDOHDL Test 2” value does the source give for CCOc1ccc(NC(=O)/C=C/c2cccc([N+](=O)[O-])c2)cc1 [MIT 9952-255] here?
Answer: Its value is 0.6.

Question: With O=C(Nc1cccc(Cl)c1)N1CCN(c2ccc([N+](=O)[O-])cc2)CC1 [MIT 9952-256] as the molecule, how does the “ENDOHDL Test 2” value read?
Answer: Its value is 0.92.

Question: With CCn1c(C)c(-c2ccccc2)c2cc([N+](=O)[O-])ccc21 [MIT 9952-257] as the molecule, how does the “ENDOHDL Test 2” value read?
Answer: The value was 0.61.

Question: How did the “ENDOHDL Test 2” value turn out when Cl.c1ccc(CCNC2CCCc3c2[nH]c2ccc(C4CCCCC4)cc32)cc1 (stereo not shown) [MIT 9952-258] was run?
Answer: Its value is 1.0.

Question: Which “ENDOHDL Test 2” value does the source give for COc1ccc(C(=O)Nc2cccc(C(F)(F)F)c2)cc1OC [MIT 9952-259] here?
Answer: Its value is 0.55.

Question: With CC[n+]1c(/C=C/SC)ccc2ccccc21 [MIT 9952-260] as the molecule, how does the “ENDOHDL Test 2” value read?
Answer: The value was 0.58.

Question: Which “ENDOHDL Test 2” value does the source give for Brc1ccc(-c2cc(-c3ccccc3)nc(N3CCOCC3)n2)cc1 [MIT 9952-261] here?
Answer: The value was 0.66.

Question: How did the “ENDOHDL Test 2” value turn out when c1ccc(-c2cc3c(ccc4nonc43)[nH]2)cc1 [MIT 9952-262] was run?
Answer: Its value is 0.45.

From patent publication US20040171073A1, “Compounds for modulation of cholesterol transport” (Massachusetts Institute of Technology, priority 2002, published 2004)
